Columns and labels:
[1] = tested on: mammalian target of rapamycin (mTOR); assay: Western blotting of p-mTOR in adipocytes; assay type: cell-based; settings: 3T3-L1 differentiated for 10 days, hydrangenol 2.5 ug/ml, 24 hours, FIG. 3
Description: The mechanism of reducing triglyceride in adipocytes was examined for the hydrangenol-containing hydrangea (Hydrangea serrata) and hydrangenol. A pre-adipocyte 3T3-L1 was differentiated for 10 days and treated with hydrangea (Hydrangea serrata) (25 ug/ml) and hydrangenol (2.5 ug/ml) for 24 hours, respectively. Thereafter, the cells were lysed using a modified LIPA buffer, and each 20 ug thereof was used for analysis. p-mTOR(ab109268, Abcam), p-FOXO1(9461S, Cell Signaling), PPARγ(sc-7273, Santa Cruz), and β-actin(A5316, Sigma) primary antibodies were used for analysis, respectively.

[2] = Effects of HG on liver and kidney (serum GOT, GPT, BUN); assay type: in vivo, mice
Description: (§1) To analyze in vivo anti-obesity efficacy of HG, animal models of obesity were prepared. 8-week-old male C57BL/6N mice (SPF grade, 20±2 g, Orient Bio) were set into 7 groups as follows, and 10 mice per each group were tested: as normal control groups, normal mice (con) with no high fat diet and no administration, and obese mice (HFD) with induction of obesity by 30% high fat diet and no administration, and as a positive control group, obese mice with oral administration of orlistat which is an anti-obesity agent. As experimental groups, obese mice with oral administration of HG of 20 mg/kg, 40 mg/kg, or 80 mg/kg, and normal mice with oral administration of HG of 80 mg/kg were used. Mice were administered with HG at the same time with induction of obesity, and HG was administered for 5 days per week for 12 weeks. A dark: light cycle was maintained at intervals of 12 hours: 12 hours, and mice were allowed to free access to water. To examine whether HG induced liver and kidney damage, glutamic oxalacetic transaminase (GOT), glutamic pyruvate transaminase (GPT), and blood urea nitrogen (BUN) were measured by serum analysis using a biochemical analyzer (AU480 Chemistry Analyzer, Beckman coulter, Calif., USA).

[3] = Changes of blood triglyceride and blood cholesterol by HG; assay type: in vivo, mice; settings: blood
Description: as §1, with “analyze the effects of” for “examine whether”, “on blood triglyceride” for “induced liver and kidney damage, glutamic oxalacetic transaminase (GOT), glutamic pyruvate transaminase (GPT),”, “cholesterol, a hematological-biochemical test was performed” for “urea nitrogen (BUN) were measured by serum analysis”

[4] = Body weight- and fat-reducing effects of HG in obese mice; assay type: in vivo; settings: obese mice (HFD); for changes in the body weight: oral administration at the same time with induction of obesity, 5 days per week for 12 weeks, FIG. 13; for body fat (dual-energy X-ray absorptiometry, fat weight): oral administration, 12 weeks, FIGS. 14 and 15
Description: To analyze in vivo anti-obesity efficacy of HG, animal models of obesity were prepared. 8-week-old male C57BL/6N mice (SPF grade, 20±2 g, Orient Bio) were set into 7 groups as follows, and 10 mice per each group were tested: as normal control groups, normal mice (con) with no high fat diet and no administration, and obese mice (HFD) with induction of obesity by 30% high fat diet and no administration, and as a positive control group, obese mice with oral administration of orlistat which is an anti-obesity agent. As experimental groups, obese mice with oral administration of HG of 20 mg/kg, 40 mg/kg, or 80 mg/kg, and normal mice with oral administration of HG of 80 mg/kg were used. Mice were administered with HG at the same time with induction of obesity, and HG was administered for 5 days per week for 12 weeks. A dark: light cycle was maintained at intervals of 12 hours: 12 hours, and mice were allowed to free access to water. An experiment was performed to analyze whether the body weight and fat of mice decreased when HG was administered. […] In addition, images of a fat distribution and body fat contents of mice of each experimental group were measured by dual-energy X-ray absorptiometry in the last week of the animal test. Each mice was sacrificed, and a visceral adipose tissue including epididymal fat was separated and a fat was weighed. The experimental results were tested for a significant difference between groups using a t-test in the Sigma plot statistical program (p#<0.05 vs normal control, p*<0.05, r<0.01, P***<0.001 vs obese group). As a result, it was confirmed that body fat was decreased in the positive control group and the HG-administered group (FIGS. 14 and 15).

[5] = Effects of WHS on liver and kidney (serum GOT, GPT, BUN); assay type: in vivo; settings: obese mice (HFD) + oral orlistat
Description: To analyze in vivo anti-obesity efficacy of WHS, animal models of obesity were first prepared. 8-week-old male C57BL/6N mice (specific-pathogen-free (SPF) grade, 20±2 g, Orient Bio) were set into 7 groups as follows, and 10 mice per each group were tested: as normal control groups, normal mice (con) with no high fat diet and no administration, and obese mice (HFD) with induction of obesity by 30% high fat diet and no administration, and as a positive control group, obese mice with oral administration of orlistat which is an anti-obesity agent. As experimental groups, obese mice with oral administration of WHS of 75 mg/kg, 150 mg/kg, or 300 mg/kg, and normal mice with oral administration of WHS of 300 mg/kg were used. Further, experiments were performed by dividing mice into those which were administered with WHS for 12 weeks at the same time with induction of obesity, and those which were administered with WHS after induction of obesity for 10 weeks. WHS was orally administered for 5 days per week during the administration period. A dark: light cycle was maintained at intervals of 12 hours: 12 hours, and mice were allowed to free access to water. To examine whether WHS induced liver and kidney damage in mice, glutamic oxalacetic transaminase (GOT), glutamic pyruvate transaminase (GPT), and blood urea nitrogen (BUN) of the WHS-administered group with induction of obesity were measured by serum analysis using a biochemical analyzer (AU480 Chemistry Analyzer, Beckman coulter, Calif., USA).

[6] = HG-administered group, Table 4 and FIG. 17
[7] = obese mice (HFD) + HG 20 mg/kg oral, 12 weeks
[8] = obese mice (HFD) + HG 40 mg/kg oral, 12 weeks
[9] = obese mice (HFD) + HG 80 mg/kg oral, 12 weeks
[10] = serum, obese mice (HFD) + oral orlistat
[11] = obese mice (HFD) + oral orlistat

O=C1OC(c2ccc(O)cc2)Cc2cccc(O)c21 (stereo not drawn) [HG, 8-hydroxy-3-(4-hydroxyphenyl)-3,4-dihydroisochromen-1-one]
phosphorylation of mammalian target of rapamycin (mTOR) [1]: reduce | GOT, GPT and BUN, difference between 7 groups ([2]; mouse, in vivo): no significant difference | HDL level ([3]; HG-administered group, Table 4): no significant difference | triglyceride level ([3]; HG-administered group, Table 4): no significant difference | LDL [3, 6]: reduction | total cholesterol [3, 6]: reduction | CHOL ([3]; normal mice + HG 80 mg/kg oral): 96.20 mg/dL | HDL ([3]; normal mice + HG 80 mg/kg oral): 66.40 mg/dL | LDL ([3]; normal mice + HG 80 mg/kg oral): 5.70 mg/dL | TG ([3]; normal mice + HG 80 mg/kg oral): 80.10 mg/dL | CHOL [3, 7]: 126.78 mg/dL | HDL [3, 7]: 80.78 mg/dL | LDL [3, 7]: 7.78 mg/dL | TG [3, 7]: 74.63 mg/dL | CHOL [3, 8]: 112.56 mg/dL | HDL [3, 8]: 71.89 mg/dL | LDL [3, 8]: 7.38 mg/dL | TG [3, 8]: 58.89 mg/dL | CHOL [3, 9]: 110.14 mg/dL | HDL [3, 9]: 71.20 mg/dL | LDL [3, 9]: 7.13 mg/dL | TG [3, 9]: 63.78 mg/dL | changes in the body weight [4]: body weight-reducing effects were observed | body fat (dual-energy X-ray absorptiometry, fat weight) [4]: decreased

CCCCCCCCCCC[C@@H](C[C@@H]1OC(=O)[C@H]1CCCCCC)OC(=O)[C@H](CC(C)C)NC=O [Orlistat, orlistat]
BUN [5]: 19.89 mg/dL | GOT [5]: 63 U/L | GPT [5]: 17.6 U/L | BUN [2, 10]: 19.89 mg/dL | GOT [2, 10]: 63 U/L | GPT [2, 10]: 17.6 U/L | CHOL [3, 11]: 115.63 mg/dL | HDL [3, 11]: 83.70 mg/dL | LDL [3, 11]: 8.60 mg/dL | TG [3, 11]: 76.40 mg/dL | changes in the body weight [4]: body weight-reducing effects were observed | body fat (dual-energy X-ray absorptiometry, fat weight) [4]: decreased

— patent publication US20210228463A1, “COMPOSITION FOR FAT FORMATION INHIBITION AND BODY FAT REDUCTION, CONTAINING HYDRANGENOL AS ACTIVE INGREDIENT” (COSMAX BIO CO., LTD., priority 2019, published 2021)
